According to patent publication US8496952B2, “Antimicrobial compositions comprising silver chloride and benzoisothiazoline” (Clariant Finance (BVI) Limited, priority 2007, dated 2013):

Key:
[1] = tested on: Staphylococcus aureus DSM 799, Pseudomonas aeruginosa DSM 1128, E-Coli DSM 682, Enterobacter aerogenes NCIMB 10102; assay: Kill-kinetic measurement according to the Clariant method, supported silver/BIT (Example 2); assay type: cell-based; details: summary of Table 2
Experimental: (Kill-kinetic measurement according to the Clariant method) of silver-BIT mixtures in comparison to the individual biocides silver and BIT
(§1) • 900 ml of phosphate buffer pH 7.0: • 600 ml of H2O dest. +117 ml of (b)+183 ml of (a)
(§2) The bacteria are cultivated on a caso agar.
(§3) After the bacteria have spent 24 hours on the culture medium (caso agar), 10 ml of the 0.1 M phosphate buffer are added thereto and mixed for 20 seconds using a vortex mixer; 9 ml of the 0.1 M buffer solution are added to 1 ml of this solution; in turn, 1 ml of this solution are taken and 9 ml of 0.1 M phosphate buffer are added. The resulting solution is the inoculum with which the test series is carried out.
The germ count was determined in each case at the start (0 h), after 0.5 h, 1 h, 2 h; 3 h; 5 h; 7 h and 24 h in accordance with the TVC method European Pharmacopoeia 2.6.12.

[2] = tested on: Staphylococcus aureus DSM 799, Pseudomonas aeruginosa DSM 1128, E-Coli DSM 682, Enterobacter aerogenes NCIMB 10102; assay: Kill-kinetic measurement according to the Clariant method, Ag salt/BIT (Example 1); assay type: cell-based; details: summary of Table 1
Experimental: (kill-kinetic measurement according to the Clariant method) of the composition Ag/BIT in comparison to the individual biocides AgCl, AgNO3, composition 1 and composition 5
as §1, §2
as §3, with “Description of the kill-kinetic measurement according to the Clariant method After” for “After”
The concentration data given for the above samples refer in each case to elemental silver and pure BIT (i.e. not in salt form). Thus, for example in sample 4, AgNO3 and BIT were mixed together such that the mixture comprised 26.7 ppm of Ag, calculated as element, and 53.3 ppm of BIT, calculated as pure substance.
The germ count was determined in each case at the start (0 h), after 0.5 h, 1 h; 2 h; 3 h; 5 h; 7 h and 24 h in accordance with the TVC method European Pharmacopoeia 2.6.12.

[3] = Color stability of Ag/BIT compared with AgCl, AgNO3, JMAC; assay type: physicochemical

Compound | antimicrobial effect / efficiency (in words) [1] | antimicrobial effect / efficiency (in words) [2] | Appearance after ([3]; 5 min) | Appearance after ([3]; 30 min) | Appearance after ([3]; 1 h) | Appearance after ([3]; 2 h) | Appearance after ([3]; 6 h) | Appearance after ([3]; 24 h) | Appearance after ([3]; immediately)
silver ions | moderate | – | – | – | – | – | – | – | –
O=c1[nH]sc2ccccc12 [Benzoisothiazoline, 1,2-benzoisothiazolin-3-one] | only develops its antimicrobial effect after many hours | – | – | – | – | – | – | – | –
AgNO3 [Sample 8] | – | moderate | – | – | – | – | – | – | –
AgCl [Sample 9] | – | moderate | – | – | – | – | – | – | –
[Cl][Ag] [AgCl] | – | – | gray | dark gray | dark gray | dark gray | dark gray | dark gray | white
O=[N+]([O-])[O-].[Ag+] [AgNO3 solution, AgNO3] | – | – | dark gray | dark gray | dark gray | dark gray | dark gray | dark gray | gray
